This note sets out measurements from patent publication US7517889B2, “2,6-substituted-4-monosubstitutedamino-pyrimidine as prostaglandin D2 receptor antagonists” (Aventis Pharmaceuticals, Inc., priority 2004, dated 2009).

This assay deals with T1, DP receptor (Homo sapiens, UniProt Q13258).
T1 construct: the human cell line LS174T, which expresses the endogenous DP receptor; endogenous in cells; host or cells: LS174T human cell line
T1 sequence (Q13258 1-359): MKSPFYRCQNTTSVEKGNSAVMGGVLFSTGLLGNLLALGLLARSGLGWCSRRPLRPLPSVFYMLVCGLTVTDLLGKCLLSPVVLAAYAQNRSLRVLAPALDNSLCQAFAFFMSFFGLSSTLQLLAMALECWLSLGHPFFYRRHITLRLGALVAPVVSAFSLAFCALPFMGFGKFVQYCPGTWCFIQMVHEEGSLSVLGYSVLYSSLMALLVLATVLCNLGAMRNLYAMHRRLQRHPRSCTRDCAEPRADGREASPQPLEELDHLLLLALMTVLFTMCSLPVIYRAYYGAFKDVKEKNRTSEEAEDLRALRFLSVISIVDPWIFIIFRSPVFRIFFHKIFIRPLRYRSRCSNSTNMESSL
In words: SPA cAMP assay in human LS174 T cells (human DP functional assay). The following applies: inhibition of PGD2 (15 nM final) stimulated cAMP, LS174T cells expressing endogenous DP receptor. The class given is cell-based. The method, then: The inhibitory effects of the compounds according to the invention are assessed in a human DP functional assay. A cAMP assay is employed using the human cell line LS174T, which expresses the endogenous DP receptor.
Protocol for SPA cAMP Assay in Human LS174 T Cells
• 1) Add equal volumes of tracer, antiserum and SPA anti-rabbit reagent to a bottle, ensuring that a sufficient volume of this mixture is prepared for the desired number of wells (150 μL/well). • 2) Mix thoroughly. • 3) This immunoreagent solution should be freshly prepared before each assay and not re-used.
Add 50 μL of […] IBMX into 100 mL PBS to make a final concentration of 100 μM and sonicate at 30° C. for 20 minutes.
Before each assay, it is freshly prepared. Add 3 μL of 10 mM stock solution to 20 mL DMSO, mix it thoroughly, and transfer 10 mL to 40 mL PBS.
Compound dilution is carried out in Biomex 2000 (Beckman) using Method 1_cAMP DP 11 points.
5 μL of each compound from the 10 mM stock compound plates is transferred to the wells of a 96-well plate respectively as below.
Fill the plate with 45 μL of DMSO except column 7 is filled with 28 μL DMSO. Pipette column 1 thoroughly, and transfer 12 μL into column 7 parallel. Perform 1:10 serial dilution from column 1 to column 6 and from column 7 to column 11 by transfer 5 μL to 45 μL DMSO to make following concentrations:
Fill a new 96-well plate with 247.5 μL of compound dilution buffer. Transfer 2.5 μL of serially diluted compounds from above plate to the new plate (1:100 dilution) as following:
Cell Growth • 1. […] Remove growth medium from cells. Cells in T165 flask are washed twice with 4 mL Trypsin followed by incubation at 37° C. and 5% CO2 for 3 minutes. • 4. Add 10 mL of medium and pipette thoroughly to separate the cells and count the cells. • 5. […] Assay Procedure Day 1 • Seed 45,000 cells/well in 200 μL medium in 96-well plates. Incubate the cell plate at 37° C., 5% CO2 and 95% humidity overnight. Day 2 • 1. Perform compound dilution. • 2. Prepare assay buffer, lysis buffer 1 & 2, PGD2 and standard. • 3. Aspirate media from the cells and add 100 μL of compound solution using Zymark Sciclone-ALH/FD protocol cAMP DP. • 4. Incubate the cells at 37° C., 5% CO2 and 95% humidity for 15 minutes. • 5. […] Aspirate media from the cells and add 50 μL of lysis buffer 1 using Zymark protocol cAMP DP lysis, and incubate at room temperature with shaking for 30 minutes. • 7. Add 150 μL immunoreagent to all wells (a total volume of 200 μL/well). • 8. Seal the plates and shake for 2 minutes, put into the chamber of the Wallac microtitre plate μ scintillation counter for 16 hours. […] Data Processing Set up standard curve of cAMP versus CPM.
The cAMP concentrations (pmol/mL) of unknown samples are calculated from a standard curve of cAMP versus CPM. % inhibition is calculated using the following formula: […]
On the technique in general: Cyclic AMP is a second messenger, typically raised through Gs and lowered through Gi signalling.

Where a name gives a salt, the structure may show the parent alone.

`COC(=O)COc1cccc(-c2cc(NCCc3ccc(Cl)cc3Cl)nc(OC)n2)c1` [Example 22(c), (3-{6-[2-(2,4-Dichloro-phenyl)-ethylamino]-2-methoxy-pyrimidin-4-yl}-phenoxy)-acetic acid methyl ester] yielded an IC50 of 0.6 nM. `COC(=O)Cn1cc(-c2cc(NCCc3c(F)cccc3Cl)nc(OC)n2)ccc1=O` [Example 22(d), (5-{6-[2-(2-Chloro-6-fluoro-phenyl)-ethylamino]-2-methoxy-pyrimidin-4-yl}-2-oxo-2H-pyridin-1-yl)-acetic acid methyl ester]: the IC50 amounted to 14 nM. Against the preceding compound, the IC50 is about 23-fold higher.

`COc1nc(NCCc2ccc(Cl)cc2Cl)cc(-c2cccc(OCC#N)c2)n1` [Example 22(e), (3-{6-[2-(2,4-Dichloro-phenyl)-ethylamino]-2-methoxy-pyrimidin-4-yl}-phenoxy)-acetonitrile] returned a concentration for half-maximal inhibition (IC50) of 0.4 nM. This IC50 is about 35-fold lower than that of the compound before. Compound `COc1nc(NCCc2c(F)cccc2Cl)cc(-c2ccc(=O)n(CC(=O)O)c2)n1` [Example 23(c), (5-{6-[2-(2-Chloro-6-fluoro-phenyl)-ethylamino]-2-methoxy-pyrimidin-4-yl}-2-oxo-2H-pyridin-1-yl)-acetic acid] came in with an IC50 of 0.3 nM.

In the case of `COc1ccc(CCNc2cc(-c3cccc(Cc4nnn[nH]4)c3)nc(OC)n2)cc1` [Example 24(b), [2-(4-Methoxy-phenyl)-ethyl]-{2-methoxy-6-[3-(1H-tetrazol-5-ylmethyl)-phenyl]-pyrimidin-4-yl}-amine hydrochloride], the IC50 was 0.1 nM. For `COc1ccc(CCNc2cc(-c3ccc(OC)c(-c4nnn[nH]4)c3)nc(OC)n2)cc1` [Example 24(c), {2-Methoxy-6-[4-methoxy-3-(1H-tetrazol-5-yl)-phenyl]-pyrimidin-4-yl}-[2-(4-methoxy-phenyl)-ethyl]-amine], inhibition was half-maximal at 0.5 nM (IC50). For `COc1nc(NCCc2ccc(OC)c(OC)c2)cc(-c2cccc(C(=O)NCCN3CCCC3)c2)n1` [Example 25(b), 3-{6-[2-(3,4-Dimethoxy-phenyl)-ethylamino]-2-methoxy-pyrimidin-4-yl}-N-(2-pyrrolidin-1-yl-ethyl)-benzamide] the value was 30 nM; for `COc1ccc(CCNc2cc(-c3ccsc3/C=N/O)nc(OC)n2)cc1` [Example 26(d), 3-{2-Methoxy-6-[2-(4-methoxy-phenyl)-ethylamino]-pyrimidin-4-yl}-thiophene-2-carbaldehyde oxime], 0.4 nM; for `COc1ccc(CCNc2cc(-c3ccc(/C(C)=N\O)s3)nc(OC)n2)cc1` [Example 26(e), 1-(5-{2-Methoxy-6-[2-(4-methoxy-phenyl)-ethylamino]-pyrimidin-4-yl}-thiophen-2-yl)-ethanone oxime], 0.8 nM.

`COc1ccc(CCNc2cc(-c3ccc(F)c(/C=N\O)c3)nc(OC)n2)cc1` [Example 26, 2-Fluoro-5-{2-methoxy-6-[2-(4-methoxy-phenyl)-ethylamino]-pyrimidin-4-yl}-benzaldehyde oxime] showed an IC50 of 4.5 nM. The compound `COc1ccc(CCNc2cc(-c3ccc(F)c(CN)c3)nc(OC)n2)cc1` [Example 27, [6-(3-Aminomethyl-4-fluoro-phenyl)-2-methoxy-pyrimidin-4-yl]-[2-(4-methoxy-phenyl)-ethyl]-amine hydrochloride] gave an IC50 of 41 nM. In the case of `COCC(=O)NCc1cc(-c2cc(NCCc3ccc(OC)cc3)nc(OC)n2)ccc1F` [Example 28, N-(2-Fluoro-5-{2-methoxy-6-[2-(4-methoxy-phenyl)-ethylamino]-pyrimidin-4-yl}-benzyl)-2-methoxy-acetamide hydrochloride], the IC50 stood at 9 nM.

Compound `COc1ccc(C(C)(C)CNc2cc(-c3cccc(OC)c3)nc(OC)n2)cc1` [Example 29, [2-Methoxy-6-(3-methoxy-phenyl)-pyrimidin-4-yl]-[2-(4-methoxy-phenyl)-2-methyl-propyl]-amine] yielded a half-inhibitory concentration (IC50) of 792 nM.

For orientation: IC50 means the concentration at which inhibition is half-maximal.
